Among the data in patent US20260042754A1, “Substituted Bicyclic Heteroaryl Sulfonamide Derivatives for the Treatment of Cancer” (NODUS ONCOLOGY LIMITED, priority 2022, published 2026) are IC50 and GI50 values, retold here.

Read-outs that look alike come from different tables or passages of the source.

Assay [1] addresses Recombinant His-tagged human PARG protein (Homo sapiens (Human), UniProt Q86W56). The experiment in a line: PARG enzymatic assay (TFMU-ADPr fluorescence). The assay is classed as biochemical. The conditions noted are these: 1 nM enzyme, 200 μM TFMU-ADPr, read after 30 minutes. As for the experimental part: Inhibition of PARG enzymatic activity by compounds was determined as follows: Recombinant His-tagged human PARG protein expressed in Sf21 insect cells (Adipogen AG, #40T-0022) was aliquoted and stored at −80° C. until use. The artificial enzyme substrate 4-(trifluoromethyl)umbelliferone (TFMU)-ADPr was prepared essentially as described (Drown B S et al, Cell Chemical Biology 2018) and stored at −20° C. as 10 mM stock solutions in DMSO (dimethyl sulfoxide) until use. For reactions, typical final concentration of the enzyme was 1 nM and of the TFMU-ADPr 200 μM. Reactions were carried out in black 384-well low volume round bottom assay plates (Corning, #4514) in a final volume of 10 μL. To this end, PARG was diluted to 1.67 nM in reaction buffer (50 mM K2HPO4, 50 mM KCl, 10 mM β-mercaptoethanol, pH 7.4) and 6 μL were dispensed per assay well using a multichannel pipette. Then compound was dispensed into each well using an Echo dispenser (BeckmanCoulter) to yield the pre-specified final concentration of the range of concentrations to be tested (typically 8-point serial concentrations ranging from either from 0.01 to 10 μM, or from 0.001 to 1 μM, or from 0.0001 to 0.1 μM), and being volume-corrected with 100% DMSO (0.5% final DMSO concentration in reaction mixtures). Plates were mixed, and after 15 minutes 4 μL TFMU-ADPr was added into each well using a multichannel pipette followed by brief mixing. Fluorescence intensity signals were then measured after 30 minutes on an EnVision microplate reader (PerkinElmer) using 380/10 nm and 535/25 nm filters for the excitation and emission, respectively (gain: 150). The assay window was set using DMSO control (top) and a control containing no PARG enzyme (bottom). Delta values were plotted as concentration-response curves fitted to a sigmoidal 4-parameter logistic model to calculate IC50 values (Scigilian Analyze).

For assay [2], the target named is human PARG (PARG-NanoLuc fusion in HEK293T cells) (Homo sapiens (Human), UniProt Q86W56). Kind of assay: PARG NanoBRET-based cellular target engagement assay. The format is cell-based. To be noted: HEK293T cells transfected with PARG-NanoLuc, NanoBRET probe 0.89 μM, 2 hours; read-out: PARG TE IC50. On the procedure:
PARG Nano-luciferase construct: The PARG-NanoLuc® fusion vector was generated by Promega, by inserting the full length human PARG cDNA sequence encoding the 976 amino acid protein (Gene ID: 8505, UniProt: Q86W56) into the pNLF1-C [CMV/Hygro] vector (C-terminal fusions with NanoLuc® enzyme).
PARG target engagement tracer synthesis: The NanoBRET tracer for PARG was prepared following a previously reported general tracer synthesis procedure.
PARG Probe Displacement Assay Using NanoBRET: HEK293T (DSMZ #ACC 635) cells transiently transfected with the PARG-NanoLuc fusion construct were resuspended in phenol red-free OptiMEM (Gibco #11058-021) to a concentration of 2.4×10^5 cells/mL. 9 μL per well were then added to a white 384-well low volume microplate (Greiner #784080) and incubated for 24 hours under standard growth conditions.
Then compound was dispensed into each well using an Echo dispenser (BeckmanCoulter) to yield the pre-specified final concentration of the range of concentrations to be tested (typically 8-point serial concentrations ranging from either from 0.01 to 10 μM, or from 0.001 to 1 μM, or from 0.0001 to 0.1 μM), and being volume-corrected with 100% DMSO (0.5% final DMSO concentration in reaction mixtures).
After mixing and an incubation at room temperature for 15 min 1 μl of the NanoBRET probe (at 0.89 μM final concentration) was added to the microplate using a multichannel pipette. The plate was mixed and incubated in a 5% CO2 environment at 37° C. for 2 hours, and then 5 μL per well of a solution consisting of a 1:31.25 dilution of Nano-Glo substrate (Promega) and a 1:500 dilution of NanoLuc extracellular inhibitor (Promega) in phenol red-free OptiMEM was added to each well followed by another mixing step. Filtered luminescence was measured on an EnVision plate reader (PerkinElmer) equipped with a 460 nm filter (donor) and a 645 nm filter (acceptor). BRET ratios were plotted as concentration-response curves fitted to a sigmoidal 4-parameter logistic model to calculate IC50 values (Scigilian Analyze).
For orientation: BRET reads energy transfer from a luciferase to a nearby fluorophore.

A further assay has as its system NCI-H1650. Kind of assay: Modified cell proliferation assay (CellTiter-Glo), NCI-H1650. The format is cell-based. To be noted: modified protocol, 384-well, 300 cells per well, 120 h, highest concentration tested 30000 nM, read-out: NCI-H1650 GI50 (high PARG dependency). On the procedure:
The cell proliferation assay protocol was modified and used for RMUG-S for Examples 12-44, and subsequently used to test Examples 1-44 in the NCI-H1650 cell line.
NCI-H1650 (ATCC, #CRL-5883) or RMUG-S were seeded on day 1 at 300 cells per well in a 384-well plate (Greiner, #781080) that assure assay linearity and optimal signal intensity in 25 μL of RPMI1640 media (Pan Biotech, #P04-22100) containing 10% FCS (Capricorn, #FBS-11A; Lot. CP22-5141) and 1% Glutamine (Pan Biotech, #P04-80100). After incubation for 24 h in humidified chambers at 37° C./5% CO2, compounds/DMSO were dispensed at different concentrations using an Echo 520 (Beckman Coulter). Cells were further incubated for 120 h at 37° C. and 5% CO2. Cells treated with the compound vehicle DMSO were used as negative controls and cells treated with 10 μM Staurosporine (LC Laboratories, #S-9300) served as positive controls.
At day 6 the CellTiter Glo Reagent was prepared according to the instructions of the kit (Promega Inc.): Reagent was mixed 1:1 with cell culture medium. Thereon, mixture and assay plates were equilibrated at room temperature for 20 min. Equal volumes of the reagent-medium-mixture were added to the volume of culture medium present in each well. The plates were mixed at […] for 2 minutes on an orbital shaker (Timix5, Edmund Buehler GmbH). The microplates were then incubated at room temperature for 10 minutes for stabilization of the luminescent signal. Following incubation, the luminescence was recorded on a Victor X5 microplate reader (Perkin Elmer) using a 200 ms integration time. The data was then analyzed with Excel using the XLFIT Plugin (dose response Fit 205) for determination of the concentration necessary for half-maximal inhibition (i.e. the inflection point of the fitted curve).
As quality control the Z′-factor was calculated from 16 positive and negative control values. Only assay results showing a Z′-factor≥0.5 were used for further analysis.
For orientation: Cellular ATP, detected with luciferase, serves as a proxy for viable cell number.

Broadly, the IC50 is the concentration needed to halve the response being measured. As a reminder, the GI50 is the concentration giving 50% growth inhibition.

Sequence of Recombinant His-tagged human PARG protein (Q86W56 whole entry): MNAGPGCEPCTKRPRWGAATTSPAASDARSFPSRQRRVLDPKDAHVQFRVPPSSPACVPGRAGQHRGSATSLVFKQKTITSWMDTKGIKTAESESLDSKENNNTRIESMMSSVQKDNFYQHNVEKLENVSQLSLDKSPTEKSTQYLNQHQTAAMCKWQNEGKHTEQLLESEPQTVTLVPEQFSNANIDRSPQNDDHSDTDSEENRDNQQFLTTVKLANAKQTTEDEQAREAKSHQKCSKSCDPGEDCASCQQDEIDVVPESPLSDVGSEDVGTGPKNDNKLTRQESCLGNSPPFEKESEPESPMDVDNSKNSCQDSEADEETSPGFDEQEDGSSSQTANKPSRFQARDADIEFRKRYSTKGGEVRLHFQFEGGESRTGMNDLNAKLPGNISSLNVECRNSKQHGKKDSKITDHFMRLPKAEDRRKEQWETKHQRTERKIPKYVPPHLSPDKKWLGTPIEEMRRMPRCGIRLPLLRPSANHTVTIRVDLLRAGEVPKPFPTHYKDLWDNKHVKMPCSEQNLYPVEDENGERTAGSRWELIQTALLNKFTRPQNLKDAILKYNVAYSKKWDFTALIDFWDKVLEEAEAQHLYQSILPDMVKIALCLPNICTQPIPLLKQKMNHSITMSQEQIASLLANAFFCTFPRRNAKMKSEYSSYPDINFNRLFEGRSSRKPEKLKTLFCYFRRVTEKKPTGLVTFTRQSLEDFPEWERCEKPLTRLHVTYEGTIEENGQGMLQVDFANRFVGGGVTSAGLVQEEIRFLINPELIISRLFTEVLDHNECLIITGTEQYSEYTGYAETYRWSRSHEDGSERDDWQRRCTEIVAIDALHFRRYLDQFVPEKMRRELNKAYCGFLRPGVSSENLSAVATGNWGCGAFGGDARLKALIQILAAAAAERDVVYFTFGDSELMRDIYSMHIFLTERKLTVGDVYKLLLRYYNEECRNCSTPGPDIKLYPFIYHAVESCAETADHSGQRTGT
Sequence of human PARG (PARG-NanoLuc fusion in HEK293T cells) (Q86W56 whole entry, the tested form may be a part): as the sequence (Q86W56 whole entry) above

For the molecule `CO/N=c1\[nH]c2c(N3CCN(C(=O)C(F)(F)C4(O)CCC4)[C@H](C)C3)cc(S(=O)(=O)NC3(C)CC3)cc2c(=O)n1Cc1cnn(C)c1` (single isomer, unassigned) [Example 43], the IC50 in assay [1] and in assay [2] was less than 30 nM in each case.

`CO/N=c1\[nH]c2c(N3CCN(C(=O)N(C)C4CC4)[C@H](C)C3)cc(S(=O)(=O)NC3(C)CC3)cc2c(=O)n1Cc1cnn(C)c1` (single isomer, unassigned) [Example 44]: the IC50 in assay [1] and in assay [2] was less than 30 nM each time.

As for `CO/N=c1\[nH]c2c(Cl)cc(S(=O)(=O)NC3(C)CC3)cc2c(=O)n1Cc1cnn(C)c1` [Example 4, 8-chloro-2-methoxyimino-N-(1-methylcyclopropyl)-3-[(1-methylpyrazol-4-yl)methyl]-4-oxo-1H-quinazoline-6-sulfonamide], the figures for the IC50 in assay [1] and in assay [2] were less than 30 nM and 30 to 99 nM, respectively. Besides, the concentration for 50% growth inhibition (GI50) in the assay with NCI-H1650 (Homo sapiens, NCI-H1650) is greater than 2000 nM.

Turning to `CO/N=c1\[nH]c2ccc(S(=O)(=O)NC3(C)CC3)cc2c(=O)n1Cc1cnn(C(F)(F)F)c1` [Example 6, 2-methoxyimino-N-(1-methylcyclopropyl)-4-oxo-3-[[1-(trifluoromethyl)pyrazol-4-yl]methyl]-1H-quinazoline-6-sulfonamide], the IC50 in assay [1] and in assay [2] was 100 to 1000 nM in each case.

Turning to `CON=c1[nH]c2ccc(S(=O)(=O)NC3(C#N)CC3)cc2c(=O)n1Cc1cnn(C)c1` [Example 9, N-(1-cyanocyclopropyl)-2-methoxyimino-3-[(1-methylpyrazol-4-yl)methyl]-4-oxo-1H-quinazoline-6-sulfonamide], the concentration for half-maximal inhibition (IC50) in assay [1] was less than 30 nM; in assay [2], 30 to 99 nM. For the same molecule, the GI50 in the assay with NCI-H1650 (Homo sapiens, NCI-H1650) is greater than 2000 nM.

For `CCO/N=c1\[nH]c2ccc(S(=O)(=O)NC3(C)CC3)cc2c(=O)n1Cc1cnn(C)c1` [Example 10, 2-ethoxyimino-N-(1-methylcyclopropyl)-3-[(1-methylpyrazol-4-yl)methyl]-4-oxo-1H-quinazoline-6-sulfonamide], the IC50 in assay [1] was less than 30 nM; in assay [2], 30 to 99 nM. Besides, the concentration for 50% growth inhibition (GI50) with NCI-H1650 (Homo sapiens, NCI-H1650) was in the range of 500 to 2000 nM.

For `CC(C)O/N=c1\[nH]c2ccc(S(=O)(=O)NC3(C)CC3)cc2c(=O)n1Cc1cnn(C)c1` [Example 11, 2-isopropoxyimino-N-(1-methylcyclopropyl)-3-[(1-methylpyrazol-4-yl)methyl]-4-oxo-1H-quinazoline-6-sulfonamide], the IC50 in assay [1] is less than 30 nM; in assay [2], 30 to 99 nM.

Take `CO/N=c1\[nH]c2c(N3CCN(C(C)=O)[C@H](C)C3)cc(S(=O)(=O)NC3(C)CC3)cc2c(=O)n1Cc1cnn(C)c1` [Example 12, (2E)-2-methoxyimino-N-(1-methylcyclopropyl)-3-[(1-methylpyrazol-4-yl)methyl]-4-oxo-8-[(3R)-4-acetyl-3-methyl-piperazin-1-yl]-1H-quinazoline-6-sulfonamide]: the IC50 in assay [1] and in assay [2] was less than 30 nM throughout. Also, the GI50 in the assay with NCI-H1650 (Homo sapiens, NCI-H1650) was less than 500 nM.

Turning to `CO/N=c1\[nH]c2c(C3=C[C@@H](C)NCC3)cc(S(=O)(=O)NC3(C)CC3)cc2c(=O)n1Cc1cnn(C)c1` [Example 13, (R,E)-2-(methoxyimino)-8-(6-methyl-1,2,3,6-tetrahydropyridin-4-yl)-3-((1-methyl-1H-pyrazol-4-yl)methyl)-N-(1-methylcyclopropyl)-4-oxo-1,2,3,4-tetrahydroquinazoline-6-sulfonamide/(R,E)-2-(methoxyimino)-8-(2-methyl-1,2,3,6-tetrahydropyridin-4-yl)-3-((1-methyl-1H-pyrazol-4-yl)methyl)-N-(1-methylcyclopropyl)-4-oxo-1,2,3,4-tetrahydroquinazoline-6-sulfonamide], the values for the IC50 in assay [1] and in assay [2] were less than 30 nM and 30 to 99 nM, respectively. In addition, the GI50 with NCI-H1650 fell in the range of 500 to 2000 nM.

In the case of `CO/N=c1\[nH]c2c(-c3ccc(C4(O)CCC4=O)cc3)cc(S(=O)(=O)NC3(C)CC3)cc2c(=O)n1Cc1cnn(C)c1` (stereo not shown) [Example 22, (E)-8-(4-(1-hydroxy-2-oxocyclobutyl)phenyl)-2-(methoxyimino)-3-((1-methyl-1H-pyrazol-4-yl)methyl)-N-(1-methylcyclopropyl)-4-oxo-1,2,3,4-tetrahydroquinazoline-6-sulfonamide], the IC50 is less than 30 nM in assay [1] and 30 to 99 nM in assay [2].

For `CO/N=c1\[nH]c2c(N3CCN(C(=O)C4(C(F)(F)F)CC4)[C@H](C)C3)cc(S(=O)(=O)NC3(C)CC3)cc2c(=O)n1Cc1cnn(C)c1` [Example 32, (R,E)-2-(methoxyimino)-3-((1-methyl-1H-pyrazol-4-yl)methyl)-8-(3-methyl-4-(1-(trifluoromethyl)cyclopropane-1-carbonyl)piperazin-1-yl)-N-(1-methylcyclopropyl)-4-oxo-1,2,3,4-tetrahydroquinazoline-6-sulfonamide], the GI50 in the assay on NCI-H1650 (Homo sapiens, NCI-H1650) is less than 500 nM.

For `CO/N=c1\[nH]c2c(N3CCN(C(=O)C(F)(F)F)[C@H](C)C3)cc(S(=O)(=O)NC3(C)CC3)cc2c(=O)n1Cc1cnn(C)c1` [Example 42, (R,E)-2-(methoxyimino)-3-((1-methyl-1H-pyrazol-4-yl)methyl)-8-(3-methyl-4-(2,2,2-trifluoroacetyl)piperazin-1-yl)-N-(1-methylcyclopropyl)-4-oxo-1,2,3,4-tetrahydroquinazoline-6-sulfonamide], the half-maximal inhibitory concentration (IC50) in assay [1] and in assay [2] was less than 30 nM in each case.
